The target of data set [1] is EN PA (full length recombinant PA endonuclease) (Influenza A virus (strain A/Wilson-Smith/1933 H1N1) (Influenza A virus (strain A/WS/1933 H1N1)), UniProt P15659). Description: biochemical. The note with it: full length EN PA 1 to 10 nM, 50 nM FRET probe; mean of a minimum of two independent experiments; read-out: FRET_ _IC50.
Data set [2] concerns Influenza strain A549 A/WSN/33 (H1N1). Description: microbe, parasite or virus in culture. As to conditions: A549 cells, influenza A/WSN/33 (H1N1), 20 hours incubation, read-out: A549_A(H1N1) EC50. Format: cell-based.
A further data set can be described thus: in vitro. The note with it: human, CC50, uninfected A549 cells, CellTiter-Glo. (Cellular ATP, detected with luciferase, serves as a proxy for viable cell number.)
The test system of data set [3] is Human lung carcinoma A549 cells. As to conditions: uninfected A549 cells, CellTiter-Glo.

Structures are written as SMILES. Read-outs that look alike come from different tables or passages of the source.

A word on the IC50: it is the concentration at which inhibition is half-maximal. Broadly, the EC50 is the concentration giving half of the maximal effect. As a reminder, the CC50 is the concentration giving 50% cytotoxicity. Regarding `CC1CCCCc2ccccc2C(c2ccccc2)N2CN1C(=O)c1c(O)c(=O)ccn12` (centres unmarked) [Compound 13, 4-hydroxy-7-methyl-15-phenyl-8,9,10,15-tetrahydro-7H-6,16-methanobenzo[j]pyrido[1,2-b][1,2,5]triazacyclododecine-3,5-dione], the half-maximal inhibitory concentration (IC50) in data set [1] worked out at 46 nM. The EC50 in data set [2] (Influenza A virus, A549, 20 h) was 19 nM. The compound also gave a CC50 in the data set “in vitro” greater than 2000 nM.
In the case of `O=C1c2c(O)c(=O)ccn2N2CN1C/C=C\CCc1ccccc1C2c1ccncc1` (single isomer, unassigned) [Compound 52A, (16*R,*Z)-4-hydroxy-16-(pyridin-4-yl)-7,10,11,16-tetrahydro-6,17-methanobenzo[k]pyrido[1,2-b][1,2,5]triazacyclotridecine-3,5-dione], the CC50 in data set [3] was greater than 2000 nM. Besides, in data set [2], the EC50 is greater than 1000 nM.
`O=C1c2c(O)c(=O)ccn2N2CN1C/C=C/CCc1ccccc1C2c1cccc(F)n1` (single isomer, unassigned) [Compound 78A, (16*R,E)-16-(6-fluoropyridin-2-yl)-4-hydroxy-7,10,11,16-tetrahydro-6,17-methanobenzo[k]pyrido[1,2-b][1,2,5]triazacyclotridecine-3,5-dione]: in data set [3], the CC50 is greater than 1000 nM. Further, the half-maximal effective concentration (EC50) in data set [2] worked out at 19 nM.
The corresponding values for `O=C1c2c(O)c(=O)ccn2N2CN1CCCCCOc1cccc3c1[C@H]2c1ccccc1SC3` (single isomer, unassigned) [Compound 69B, (23b*S)-6-hydroxy-10,11,12,13,18,23b-hexahydro-9H-1,8-methano[1]benzothiepino[5,4,3-lm]pyrido[2,1-i][1,7,10,11]benzoxatriazacyclotetradecine-5,7-dione] are greater than 2000 nM and 27 nM.
For `O=C1c2c(O)c(=O)ccn2N2CN1C/C=C/CCc1c(F)cccc1C2c1cccc(F)n1` (single isomer, unassigned) [Compound 76B, (16*S,E)-12-fluoro-16-(6-fluoropyridin-2-yl)-4-hydroxy-7,10,11,16-tetrahydro-6,17-methanobenzo[k]pyrido[1,2-b][1,2,5]triazacyclotridecine-3,5-dione], in that order: greater than 200 nM and 6 nM.
The compound `O=C1c2c(OCc3ccccc3)c(=O)ccn2N2CN1CC1CC1COc1ccccc1C2c1ccccc1` (centres unmarked) yielded a ring closure, yield of all isomers (from O=C1c2c(OCc3ccccc3)c(=O)ccn2N(C(c2ccccc2)c2ccccc2O)CN1CC1CC1CBr, ether bond, K2CO3, CH3CN, 44.8 mM, […], 0.5 h) of 55.8%.
`O=C1c2c(O)c(=O)ccn2N2CN1C/C=C\CCc1ccccc1C2c1ccncc1` (single isomer, unassigned) [Compound 52B, (16*S,*Z)-4-hydroxy-16-(pyridin-4-yl)-7,10,11,16-tetrahydro-6,17-methanobenzo[k]pyrido[1,2-b][1,2,5]triazacyclotridecine-3,5-dione] returned a CC50 in data set [3] greater than 2000 nM. The EC50 in data set [2] was 84 nM.
In the case of `O=C1c2c(OCc3ccccc3)c(=O)ccn2N2CN1CC=CCOc1c(F)cccc1C2c1cccc(F)c1` (centres unmarked), the ring closure, yield of all isomers (from C=CCOc1c(F)cccc1C(c1cccc(F)c1)N1CN(CC=C)C(=O)c2c(OCc3ccccc3)c(=O)ccn21, rcm bond, Hoveyda-Grubbs second generation catalyst, DCE, 19.6 mM, 80.0 °C, 2.0 h) turned out to be 13.6%.
`O=C1c2c(O)c(=O)ccn2N2CN1CCCCCOc1cccc3c1[C@@H]2c1ccccc1SC3` (single isomer, unassigned) [Compound 69A, (23b*R)-6-hydroxy-10,11,12,13,18,23b-hexahydro-9H-1,8-methano[1]benzothiepino[5,4,3-lm]pyrido[2,1-i][1,7,10,11]benzoxatriazacyclotetradecine-5,7-dione] yielded a CC50 in data set [3] greater than 2000 nM. For the same compound, in data set [2], the EC50 is greater than 1000 nM.
On to `O=C1c2c(OCc3ccccc3)c(=O)ccn2N2CN1CC=CCOc1cccc3c1C2c1ccccc1SC3` (centres unmarked), for which the ring closure, yield of all isomers (from C=CCOc1cccc2c1C(N1CN(CC=C)C(=O)c3c(OCc4ccccc4)c(=O)ccn31)c1ccccc1SC2, rcm bond, Hoveyda-Grubbs catalyst 2nd generation, DCE, 16.04 mM, 80.0 °C, […]) worked out at 15%.
As for `O=C1c2c(OCc3ccccc3)c(=O)ccn2N2CN1C1(C=CCOc3c(ccc(F)c3F)C2c2ccccc2)CCC1` (centres unmarked), the ring closure, yield of all isomers (from C=CCOc1c(C(c2ccccc2)N2CN(C3(C=C)CCC3)C(=O)c3c(OCc4ccccc4)c(=O)ccn32)ccc(F)c1F, rcm bond, Hoveyda-Grubbs II, dichloroethane, 12.05 mM, 100.0 °C, 6.0 h) stood at 40.7%.
Consider `CCC1C=CCOc2ccccc2C(c2ccccc2)N2CN1C(=O)c1c(OCc3ccccc3)c(=O)ccn12` (centres unmarked), for which, where the note is “from C=CCOc1ccccc1C(c1ccccc1)N1CN(C(C=C)CC)C(=O)c2c(OCc3ccccc3)c(=O)ccn21, rcm bond, Hoveyda-Grubbs catalyst 2nd generation, DCE, […], 80.0 °C, 2.0 h”, the ring closure, yield of all isomers stood at 62.5%.
The compound `O=C1c2c(OCc3ccccc3)c(=O)ccn2N2CN1CC=CCOc1ccccc1C2c1ccccn1` (centres unmarked) showed a ring closure, yield of all isomers (from C=CCOc1ccccc1C(c1ccccn1)N1CN(CC=C)C(=O)c2c(OCc3ccccc3)c(=O)ccn21, rcm bond, Hoveyda-Grubbs catalyst 2nd generation, DCE, 14.6 mM, 80.0 °C, 2.0 h) of 9.7%.
For the compound `O=C1c2c(O)c(=O)ccn2N2CN1C/C=C/CCc1c(F)cccc1C2c1cccc(F)n1` (single isomer, unassigned) [Compound 76A, (16*R,E)-12-fluoro-16-(6-fluoropyridin-2-yl)-4-hydroxy-7,10,11,16-tetrahydro-6,17-methanobenzo[k]pyrido[1,2-b][1,2,5]triazacyclotridecine-3,5-dione], in data set [3], the CC50 worked out at 43900 nM. In data set [2], the EC50 came out at 3590 nM.

Source of the values: patent US11312727B1, “Macrocyclic flu endonuclease inhibitors” (Janssen BioPharma, Inc., priority 2018, dated 2022).
